Measurements reported in paper PMC8551334 (Scientific Reports, 2021).
Values after ≈ are worked out from the molar mass of the structure shown. Where two headings read alike, the source gives them in different places.

Key:
DENV-4 = assay: Virucidal assay against DENV-4, FFURA; type: cell-based; conditions: Dengue virus, DENV4; read-out: Viral infectivity inhibition, DENV-4
Description: (§1) The antiviral activity of flavonoids was determined by measuring the reduction in the number of DENV infectious foci after treatment. The antiviral assays were performed based on Zandi et al.[14] with minor modifications. Briefly, a confluent monolayer of Vero cells seeded in 24-well plates was treated with flavonoids before or after or with the virus infection and incubated for 4 days. The virus foci were visualized using immunostaining. The flavonoids' antiviral activities were determined by calculating the percentage of foci reduction (%RF) according to the following equation: Percentageofinhibition%=(C-T)/C×100% where, C is the number of foci without the flavonoid treatment (control). T is the number of foci with the respective flavonoid treatment.
(§2) After 1 h, the flavonoid-treated virus was used to infect Vero cells at 37 °C for 1 h. Then, the unabsorbed virus was removed, and the cells were washed and overlaid with 1 mL of overlay medium. After 4 days, the reduction in foci was determined by immunostaining. Another parallel experiment was carried out by replacing the overlay medium with DMEM supplemented with 2% FBS to determine the reduction in viral RNA copy number by qRT-PCR as previously described.

DENV-3 progeny [1] = assay: Post-infection assay, intracellular DENV-3 progeny, FFURA; type: cell-based, dengue virus; conditions: for IC50: 48 h treatment, mean ± SEM, read-out: IC50 against DENV-3 progeny, FFURA
Description: as §1
(§3) To determine the activity of flavonoids in inhibiting the intracellular viral progeny, Vero cells (1 × 10^5 cells/well) in a 24-wells plate were infected with DENV-3 (MOI = 0.1) for 1 h at 37 °C. […] After 48 h, the viral supernatant was collected, and twofold dilution was used to reinfect fresh monolayer of Vero cells, and the reduction in viral titer was quantified using FFURA and qRT-PCR.
(§4) The maximum non-toxic dose (MNTD80) and 50% of inhibition (IC50) of flavonoids in Vero cells were calculated using Prism software (GraphPadPrism8, CA, USA) by applying four-parameter logistic non-linear regression model. The selectivity index (SI) was calculated as SI = CC50/IC50. Data presented are the mean ± SEM of three independent experiments. The student t-test was used to analyze the antiviral activity of flavonoids compared to a positive control (*p < 0.05, **p < 0.01, ***p < 0.001, ****p < 0.0001).

DENV-3 [2] = assay: FACS neutralization test (FNT); type: cell-based, dengue virus; conditions: for FACS gating percentage (FITC-positive population): 10,000 events
Description: Vero cells were seeded in 24 well plates at a density of 1 × 10^5 cells/well and incubated overnight. The antiviral assays were done using MOI 0.5 DENV-3, and FNT was carried out 48 h post-infection. Viral infected cells were harvested by trypsinization and centrifugation (1500 rpm, 5 min). Harvested cells were washed with PBS and fixed with 250 µL of BD Cytofix/Cytoperm™ Fixation/Permeabilization solution kit with BD GolgiStop™ (BD Biosciences, USA) solution and incubated on ice for 20 min in the dark. The cells were centrifuged at 3000 rpm for 2 min and washed two times with stain buffer (PBS + 5%FBS). Staining was performed with 50 µL of anti-dengue virus type III primary antibody, clone 5D4-11 (MAB8703 Sigma-Aldrich, USA), diluted in Cytoperm/Cytowash solution at a ratio of 1:1000 and incubated for 1 h on ice. After that, the cells were washed and stained with 50 µL of FITC-conjugated secondary antibody (Sigma-Aldrich, USA) diluted in Cytoperm/Cytowash solution at a ratio of 1:1000 and incubated for 1 h on ice in the dark. The samples were analyzed in a BD FACSCalibur flow cytometer (BD Biosciences, USA) using BD Cellquest pro software. For each sample, 10,000 events were collected, and the percent reduction in the number of infected cells was calculated using the following equation. Percentageofinhibition%=(C-T)/C×100% where, C is the percentage of viral infected cells among the 10,000 events without flavonoid treatment (control). T is the percentage of infected cells among the 10,000 events with the respective flavonoid treatment.
Percent reduction in virus-infected cells was represented as the mean ± standard error of the mean (SEM) from triplicate assays determined from three independent experiments.

DENV-2 = assay: Virucidal assay against DENV-2, FFURA; type: cell-based; conditions: Dengue virus, DENV2; read-out: Viral infectivity inhibition, DENV-2
Description: as §1, §2

DENV-3 progeny [3] = assay: Post-infection assay, intracellular DENV-3 progeny, qRT-PCR; type: cell-based, dengue virus; conditions: for IC50: Dengue virus, DENV3, 48 h treatment, mean ± SEM, read-out: IC50 against DENV-3 progeny, qRT-PCR
Description: (§5) Viral RNA extraction was performed using QIAamp^R Viral RNA extraction kit (QIAGEN, Germany), and viral RNA copy number was quantified using the genesig Real-Time qRT-PCR Standard Kit (PrimerDesign, UK). The reactions were in a final volume of 20 μL containing 10 μL of the master mix, 1 μL of probe/primer mix, 4 μL of nuclease-free water, and 5 μL of viral RNA template. Quantitative PCR was performed using a CFX96 Touch™ Real-Time PCR Detection System (Bio-Rad, USA.) with the following conditions: 10 min at 55 °C (reverse transcription), 2 min at 95 °C (enzyme activation) followed by 50 cycles of amplification (10 s at 95 °C, 60 s at 60 °C). The viral RNA copy number was determined based on the threshold cycles (Ct) and standard curve generated from known RNA standards.
as §3, §4

DENV-3 [4] = assay: Time course assay for virucidal activity; type: cell-based, dengue virus; conditions: for Time taken to achieve 50% viral infectivity inhibition: co-incubation with DENV-3
Description: Vero cells (1 × 10^5 cells/well) were grown overnight in a 24-well plate. […] Cells were infected with the flavonoid-treated virus and incubated at 37 °C for 1 h. Then, the unabsorbed virus was removed, and the cells were washed and overlaid with 1 mL of overlay medium. After 4 days, the reduction in foci was determined by immunostaining.

DENV-1 = assay: Virucidal assay against DENV-1, FFURA; type: cell-based; conditions: Dengue virus, DENV1; read-out: Viral infectivity inhibition, DENV-1
Description: as §1, §2

DENV-3 [5] = assay: Virucidal assay against extracellular DENV-3, FFURA (foci reduction); type: cell-based, dengue virus; conditions: for IC50: extracellular DENV-3, reduction in virus foci, mean ± SEM; for Viral foci reduction at highest concentration, virucidal assay: silymarin 200 µg/mL, baicalein 100 µg/mL, baicalin 20 µg/mL, DENV-3
Description: as §1, §2, §4

[6] = Cytotoxicity of flavonoids in Vero cells by MTS assay; type: cell-based, African green monkey; conditions: African green monkey
Description: (§6) The cytotoxic potential of flavonoids in Vero cells was assessed by MTS assay. Briefly, confluent Vero cells in a 96 well plate were treated with different concentrations of flavonoids in triplicates with DMEM containing 2% FBS. After 2 days, 20 μL of 3-(4,5-Dimethylthiazol-2-yl)-5-(3-carboxymethoxyphenyl)-2-(4-sulfophenyl)-2H-tetrazolium (MTS) reagent (Promega, France) was added to each well. After 1 h of incubation at 37 °C, the cells were agitated, and the absorbance was measured at 490 nm in a microplate reader (Tecan, Infinite M2000, Switzerland). Maximum non-toxic dose (MNTD80) and 50% cytotoxic concentration (CC50) were calculated by non-linear regression using prism software (GraphPadPrism8, USA).
as §4

Vero cells [7] = assay: as above; type: cell-based, African green monkey; conditions: 48 h; for Concentrations up to which no significant cytotoxic effects were seen: African green monkey; for MNTD80 (maximum non-toxic dose, 80% of cells viable): Vero cells, MTS assay, mean ± SEM
Description: as §6, §4

DENV-3 [8] = assay: Virucidal assay against extracellular DENV-3, qRT-PCR (viral RNA copy number); type: cell-based, dengue virus; conditions: for IC50: Dengue virus, DENV3, extracellular DENV-3, reduction in viral RNA copy number, mean ± SEM
Description: as §5, §2, §4

DENV-3 [9] = assay: Attachment assay; type: cell-based, dengue virus
Description: Vero cells (1 × 10^5 cells/well) were grown overnight in a 24-well plate. […] After 1 h, the flavonoid-treated virus is incubated on ice for 15 min. Next, pre-chilled Vero cells were infected with the pre-chilled flavonoid-treated virus at 4 °C for 1 h to allow virus attachment. Then, the unabsorbed virus was removed, and the cells were washed and overlaid with 1 mL of overlay medium. After 4 days, the reduction in foci was determined by immunostaining.

DENV-3 [10] = assay: Entry assay; type: cell-based, dengue virus
Description: Pre-chilled DENV-3 (80 FFU/well) in the absence of flavonoids were added to the pre-chilled Vero cells and incubated at 4 °C to allow virus attachment. […] After that, the medium containing flavonoids was removed, and Vero cells were washed and treated with acidic PBS (pH 3) for 60 s to inactivate the extracellular virus. After 60 s, the acidic PBS was neutralized by alkaline PBS (pH 11) in each well. Next, cells were then washed with serum-free media and overlaid with 1 mL of overlay medium. After 4 days, the reduction in foci was determined by immunostaining.

EVA-71 = conditions: cited from earlier work
Vero cells [11] = test system: Vero cells; parameters: method as in Moghaddam et al. 15; conditions: ref Moghaddam et al. 15; cited from earlier work
[12] = Dengue virus, DENV3, post-infection assay
[13] = Dengue virus, DENV3, read-out: Maximum inhibition of intracellular viral progeny infectivity
[14] = silymarin 200, baicalein 100, baicalin 20 µg/mL

O=c1cc(-c2ccccc2)oc2cc(O)c(O)c(O)c12 [Baicalein]
inhibition at 100 µg/mL (DENV-4): 80.49 ± 0.26% | IC50 (DENV-3 progeny [1]; [12]): 34.7 ± 6.71 µg/mL (≈ 128 µM) | inhibition at 100 µg/mL (DENV-3 progeny [1]; [13]): 79.7% | FACS gating percentage (FITC-positive population) (DENV-3 [2]; [14]): 0.44% | Percentage of inhibition of DENV-3 infected cell population (FNT) (DENV-3 [2]; MOI 0.5, 48 h post-infection, silymarin 200, baicalein 100, baicalin 20 µg/mL): 97.92% | inhibition at 100 µg/mL (DENV-2): 97.2 ± 1.41% | IC50 (DENV-3 progeny [3]): 29.7 ± 12.8 µg/mL (≈ 110 µM) | Viral infectivity inhibition achieved at 0 min (DENV-3 [4]; 0 min co-incubation, silymarin 200, baicalein 100, baicalin 20 µg/mL): 62.45 ± 3.67% | Viral infectivity inhibition at 60 min co-incubation (maximum) (DENV-3 [4]; 60 min co-incubation, silymarin 200, baicalein 100, baicalin 20 µg/mL): 97.24% | Time taken to achieve 50% viral infectivity inhibition (DENV-3 [4]; [14]): 0 min | Co-incubation time to reach up to 75% viral infectivity inhibition (DENV-3 [4]; silymarin 200, baicalein 100 µg/mL): 15 min | inhibition at 100 µg/mL (DENV-1): 96.7 ± 2.1% | IC50 (DENV-3 [5]; Dengue virus, DENV3): 12.7 ± 3.49 µg/mL (≈ 47 µM) | inhibition at 100 µg/mL (DENV-3 [5]; Dengue virus, DENV3, read-out: Viral infectivity inhibition, DENV-3): 99.68 ± 0.1% | Viral foci reduction at highest concentration, virucidal assay (DENV-3 [5]): 99.78% | CC50 at 48 h ([6]; Vero cells, MTS assay, 48 h, mean ± SEM, read-out: CC50 (half maximum cytotoxic concentration)): 271 ± 6.57 µg/mL (≈ 1000 µM) | Concentrations up to which no significant cytotoxic effects were seen (Vero cells [7]): ≤ 100 µg/mL | MNTD80 (maximum non-toxic dose, 80% of cells viable) (Vero cells [7]): 122.95 ± 2.37 µg/mL | IC50 (DENV-3 [8]): 17.2 ± 2.48 µg/mL (≈ 63.8 µM) | Inhibition of viral attachment (DENV-3 [9]; DENV-3 to Vero cells, silymarin 200, baicalein 100, baicalin 20 µg/mL): 95.59 ± 1.44% | Inhibition of viral entry (DENV-3 [10]; DENV-3 into Vero cells, silymarin 200, baicalein 100, baicalin 20 µg/mL): 57.91 ± 11.65% | Virucidal effect against EVA-71 (EVA-71; silymarin at < 1 min contact, baicalein maximum at 60 min): 60% | Period of contact (co-incubation time) needed for the virucidal effect (EVA-71; silymarin for 65% effect, baicalein for maximum of 60% effect): 60 min

O=C(O)[C@H]1O[C@@H](Oc2cc3oc(-c4ccccc4)cc(=O)c3c(O)c2O)[C@H](O)[C@@H](O)[C@@H]1O [Baicalin]
IC50 (DENV-3 progeny [1]; [12]): 5.31 ± 1.96 µg/mL (≈ 11.9 µM) | inhibition at 20 µg/mL (DENV-3 progeny [1]; [13]): 81% | SI (CC50/IC50) against DENV-3 progeny, FFURA (DENV-3 progeny [1]; post-infection assay): 10.29 | FACS gating percentage (FITC-positive population) (DENV-3 [2]; [14]): 42.35% | inhibition at 20 µg/mL (DENV-3 [2]; Dengue virus, DENV3, 48 h, read-out: Percentage of inhibition of DENV-3 infected cell population (FNT)): 31.9% | CC50 (Vero cells [11]): 290.9 µg/mL (≈ 652 µM) | SI (CC50/IC50) against DENV-3 progeny, qRT-PCR (DENV-3 progeny [3]): 12.06 | IC50 (DENV-3 progeny [3]): 4.53 ± 0.62 µg/mL (≈ 10.1 µM) | inhibition at 20 µg/mL (DENV-3 [4]; Dengue virus, DENV3, 1 h, read-out: Viral infectivity inhibition at 60 min co-incubation (maximum)): 66.9% | Time taken to achieve 50% viral infectivity inhibition (DENV-3 [4]; [14]): 25.8 min | IC50 (DENV-3 [5]; Dengue virus, DENV3): 7.38 ± 1.1 µg/mL (≈ 16.5 µM) | SI (CC50/IC50), virucidal assay, FFURA (DENV-3 [5]; extracellular DENV-3): 7.40 | Viral foci reduction at highest concentration, virucidal assay (DENV-3 [5]): 76% | CC50 at 48 h [6]: 54.6 ± 0.76 µg/mL (≈ 122 µM) | Concentrations up to which no significant cytotoxic effects were seen (Vero cells [7]): ≤ 20 µg/mL | MNTD80 (maximum non-toxic dose, 80% of cells viable) (Vero cells [7]): 19.15 ± 0.07 µg/mL | IC50 (DENV-3 [8]): 17.4 ± 6.51 µg/mL (≈ 39 µM) | SI (CC50/IC50), virucidal assay, qRT-PCR (DENV-3 [8]; extracellular DENV-3): 3.14 | inhibition at 20 µg/mL (DENV-3 [9]; Dengue virus, DENV3, Vero, read-out: Inhibition of viral attachment): 48.5 ± 9.1% | inhibition at 20 µg/mL (DENV-3 [10]; Dengue virus, DENV3, Vero, read-out: Inhibition of viral entry): 49.8 ± 8.78%
